In PubChem BioAssay (NCI) one finds GI50 and TGI data, which are given here for nine compounds.

Structures are written as SMILES. Values joined by “and” are separate entries in the source; they are usually repeats but may differ in a detail not shown here. Equal values may be shown once.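 Following 48 hours of exposure in 96-well plates, responses at five concentrations were used to interpolate endpoints linearly. GI50 marks 50% less growth. Definition used: TGI = concentration required for complete inhibition of growth.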

Among the test systems are ACHN renal; PC-3 prostate; NCI-H23 lung; MDA-MB-231 breast; 786-0 renal; SN12C renal; NCI-H460 lung; OVCAR-3 ovarian; NCI-H226 lung; HL-60(TB) leukemia.
Holding throughout (experiment): DTP human tumour cell line panel, 48 h

Broadly, the GI50 is the concentration at which growth is held to half of that of the control. Broadly, the TGI is the concentration at which net growth stops. Read a low TGI as more potent growth arrest. On to `COC(=O)CC[C@H](Cc1ccccc1)NC(=O)c1csc([C@@H](C[C@H](C(C)C)N(C)C(=O)[C@@H](NC(=O)[C@H]2CCCCN2C)C(C)C)OC(C)=O)n1`, for which the GI50 is 0.013 µM in the assay with ACHN renal; less than 0.0025 µM in the assay with PC-3 prostate; 0.00515 µM in the assay on NCI-H23 lung; 0.0057 µM in the assay with MDA-MB-231 breast; less than 0.0025 µM in the assay with 786-0 renal; less than 0.0025 µM in the assay with SN12C renal. Besides, the concentration for 50% growth inhibition (GI50) in the assay on NCI-H460 lung and in the assay on OVCAR-3 ovarian was less than 0.0025 µM in each case. Moreover, the TGI with ACHN renal was 21.4 µM; in the assay on PC-3 prostate, more than 25 µM; in the assay on NCI-H23 lung, more than 25 µM; in the assay with MDA-MB-231 breast it was more than 25 µM; with 786-0 renal, more than 25 µM; with SN12C renal it was more than 25 µM. The TGI in the assay with NCI-H460 lung and in the assay on OVCAR-3 ovarian was more than 25 µM in each case.

`O=C1c2ccccc2-c2c1c1ccccc1c(=O)n2CCCn1ccnc1`: the GI50 with ACHN renal was 0.885 µM; in the assay on PC-3 prostate, 2.04 µM; in the assay on NCI-H23 lung, 1.84 µM; in the assay on NCI-H226 lung, 1.35 µM; in the assay with MDA-MB-231 breast, 2.08 µM; with 786-0 renal, 1.74 µM. For the same compound, the GI50 is 1.66 µM in the assay with SN12C renal, 0.2 µM with HL-60(TB) leukemia and 1.17 µM with NCI-H460 lung. For the same compound, the TGI with ACHN renal is 3.43 µM; in the assay with PC-3 prostate, more than 100 µM; in the assay with NCI-H23 lung, 6.05 µM; in the assay on NCI-H226 lung it was 3.04 µM; in the assay with MDA-MB-231 breast, 5.8 µM; in the assay on 786-0 renal, 7.72 µM. In addition, the results for the TGI with SN12C renal, in the assay with HL-60(TB) leukemia and in the assay with NCI-H460 lung were 4.31 µM, 2.18 µM and 10.4 µM, respectively.

Turning to `Cc1ncc(C(=O)Nc2ccc(CN3CCN(C)CC3)c(C(F)(F)F)c2)cc1C#Cc1cnc(N)cc1C#N`, the GI50 is 0.189 µM in the assay on ACHN renal; 0.71 µM in the assay with PC-3 prostate; 0.707 µM in the assay on NCI-H23 lung; 0.263 µM with NCI-H226 lung; 0.222 µM with MDA-MB-231 breast; 0.38 µM in the assay with 786-0 renal. The GI50 in the assay with SN12C renal was 0.305 µM; in the assay with HL-60(TB) leukemia, 0.481 µM; with NCI-H460 lung, 0.417 µM; in the assay with OVCAR-3 ovarian, 0.995 µM. The TGI with ACHN renal came to 2 µM; in the assay on PC-3 prostate it was 3.48 µM; with NCI-H23 lung, 3.21 µM; in the assay with NCI-H226 lung, 2.66 µM; with MDA-MB-231 breast, 1.92 µM; in the assay with 786-0 renal, 0.835 µM. The concentration for total growth inhibition (TGI) with SN12C renal came to 2.32 µM; with HL-60(TB) leukemia, 2.85 µM; in the assay with NCI-H460 lung, 2.84 µM; with OVCAR-3 ovarian, 3.25 µM.

As for `CCN1CCN(CC(=O)N2c3cccc4cccc(c34)N(C(=O)CN3CCN(CC)CC3)C2c2cn(-c3ccccc3)nc2-c2cccc([N+](=O)[O-])c2)CC1`, the GI50 was 1.64 µM in the assay with ACHN renal; 1.48 µM in the assay on PC-3 prostate; 1.81 µM in the assay on NCI-H23 lung; 1.42 µM with MDA-MB-231 breast; 1.66 µM in the assay with 786-0 renal; 1.49 µM in the assay on SN12C renal. Moreover, the GI50 in the assay with HL-60(TB) leukemia is 1.93 µM; in the assay with NCI-H460 lung, 1.51 µM; in the assay with OVCAR-3 ovarian, 1.63 µM. In addition, the TGI with ACHN renal was found to be 3.08 µM; in the assay with PC-3 prostate, 3.14 µM; in the assay with NCI-H23 lung, 3.59 µM; in the assay with MDA-MB-231 breast, 2.88 µM; in the assay with 786-0 renal it was 3.17 µM; in the assay on SN12C renal, 3.01 µM. Also, the figures for the TGI with HL-60(TB) leukemia, with NCI-H460 lung and in the assay on OVCAR-3 ovarian were 3.85 µM, 3.14 µM and 3.24 µM, respectively.

In the case of `CCOC(=O)c1c2c(n3ccccc13)C(=O)c1ncccc1C2=O`, the concentration for 50% growth inhibition (GI50) was 0.0343 µM in the assay with ACHN renal; 0.361 µM in the assay on PC-3 prostate; 0.0617 µM in the assay on NCI-H23 lung; 0.0544 µM with NCI-H226 lung; 2.76 µM with MDA-MB-231 breast; 0.18 µM in the assay with 786-0 renal. For the same compound, the 50% growth inhibitory concentration (GI50) is 0.0348 µM in the assay on SN12C renal, 0.0784 µM with HL-60(TB) leukemia and 0.03 µM in the assay on OVCAR-3 ovarian. In addition, the concentration for total growth inhibition (TGI) was 6.24 µM in the assay with ACHN renal; 14.9 µM with PC-3 prostate; 5.75 µM in the assay on NCI-H23 lung; 3.5 µM in the assay on NCI-H226 lung; more than 100 µM with MDA-MB-231 breast; 13.8 µM with 786-0 renal. In addition, the TGI in the assay with SN12C renal was determined as 5.85 µM; in the assay with HL-60(TB) leukemia it was 1.09 µM; in the assay with OVCAR-3 ovarian, 0.945 µM.

`CC(C)CC(NC(=O)OC(C)(C)C)C(=O)Nc1ccc(Nc2nc(F)nc(-c3c4ccccc4cn3C)n2)cc1` (stereo not given): the TGI with ACHN renal, in the assay with PC-3 prostate, in the assay with NCI-H23 lung, in the assay with NCI-H226 lung, with MDA-MB-231 breast and in the assay on 786-0 renal was more than 100 µM each time. Besides, the TGI with SN12C renal is more than 100 µM; in the assay on HL-60(TB) leukemia it was 33 µM; with NCI-H460 lung, more than 100 µM; in the assay on OVCAR-3 ovarian, 63 µM.

For the compound `Cc1cn(-c2cc(NC(=O)c3ccc(C)c(Nc4nccc(-c5cccnc5)n4)c3)cc(C(F)(F)F)c2)cn1`, the GI50 in the assay with ACHN renal is > 10 µM and 9.36 µM; in the assay with PC-3 prostate, 3.19 µM and 3.23 µM; with NCI-H23 lung, 7.35 µM and 6.5 µM; in the assay with NCI-H226 lung, > 10 µM and 16.2 µM; with MDA-MB-231 breast it was 3.68 µM and 1.81 µM; in the assay on 786-0 renal it was > 10 µM and 2.24 µM. For the same compound, the GI50 with SN12C renal is > 10 µM and 13 µM; in the assay with NCI-H460 lung it was 3.31 µM and 2.33 µM; in the assay with OVCAR-3 ovarian, 5.77 µM and 4.38 µM. The total growth inhibition concentration (TGI) in the assay with ACHN renal is > 10 µM and 27.2 µM; with PC-3 prostate, more than 10 µM; in the assay on NCI-H23 lung, > 10 µM and 30 µM; in the assay with NCI-H226 lung, > 10 µM and 39.8 µM; in the assay with MDA-MB-231 breast, > 10 µM and 14.3 µM; in the assay with 786-0 renal, > 10 µM and 7.1 µM. Moreover, the TGI was > 10 µM and 29 µM in the assay with SN12C renal; > 10 µM and 10.7 µM with NCI-H460 lung; > 10 µM and 11.5 µM in the assay with OVCAR-3 ovarian.

As to `COc1cccc(/C=N/C(/N=C/c2cccc(OC)c2O)c2cccc(OC)c2O)c1O`, the TGI in the assay with ACHN renal was 58.6 µM; in the assay on PC-3 prostate, more than 100 µM; in the assay with NCI-H23 lung it was more than 100 µM; in the assay on MDA-MB-231 breast, more than 100 µM; in the assay on 786-0 renal, more than 100 µM; with SN12C renal, 77.6 µM. In addition, the TGI in the assay on HL-60(TB) leukemia worked out at 68.5 µM; in the assay with NCI-H460 lung, 59.9 µM; in the assay with OVCAR-3 ovarian, 62.4 µM.

Regarding `COC(=O)/C=C/c1cc2c(cc1-c1c(C(=O)O)cc(OC)c(OC)c1OC)OCO2`, the TGI in the assay with ACHN renal, with PC-3 prostate, in the assay on NCI-H23 lung, in the assay on MDA-MB-231 breast, in the assay with 786-0 renal and with SN12C renal was more than 10 µM each time. The TGI with HL-60(TB) leukemia and in the assay with OVCAR-3 ovarian was more than 10 µM in each case.
